Laboratory results: patent publication US20250282760A1 (Merck Sharp & Dohme LLC, priority 2022, published 2025)

Molecular target: T1, human OX2R (Homo sapiens, UniProt O43614)
T1 construct: expressed in transfected cells; host or cells: Chinese hamster ovary (CHO) cells, kept under G418 selection
T1 sequence (O43614 1-444): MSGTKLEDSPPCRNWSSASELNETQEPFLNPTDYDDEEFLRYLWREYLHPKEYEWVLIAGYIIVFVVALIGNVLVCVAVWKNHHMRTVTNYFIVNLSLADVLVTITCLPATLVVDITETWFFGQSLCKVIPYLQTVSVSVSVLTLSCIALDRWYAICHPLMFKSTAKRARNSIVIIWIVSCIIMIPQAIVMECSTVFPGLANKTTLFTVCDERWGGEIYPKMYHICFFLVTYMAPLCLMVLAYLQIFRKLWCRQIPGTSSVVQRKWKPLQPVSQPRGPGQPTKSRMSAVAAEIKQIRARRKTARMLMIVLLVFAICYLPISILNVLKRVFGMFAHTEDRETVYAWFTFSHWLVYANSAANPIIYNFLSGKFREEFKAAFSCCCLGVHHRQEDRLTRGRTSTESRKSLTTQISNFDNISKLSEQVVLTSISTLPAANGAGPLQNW
Test: IPOne (IP-1 accumulation) assay of orexin receptor agonist activity in CHO cells expressing human OX2R
Type: cell-based
Details: for IC50: CHO cells expressing human OX2R, IP-One assay, 2 hours incubation, four parameter logistic fit, read-out: hOX2R_IP IC50; for Emax: CHO, percent activity at maximum tested concentration, relative to reference compound at 1 uM (100% activity) for human OX2R
From the text: The utility of the compounds in accordance with the present invention as orexin receptor OX1R and/or OX2R agonists may be readily determined without undue experimentation by methodology well known in the art. Both the OX1R and/or OX2R G-coupled protein receptors (GPCRs) couple through the Gαq signaling pathway, which ultimately promotes calcium mobilization via inositol triphosphate (IP3) production. […] The utility of the compounds in accordance with the present invention as orexin receptor OX1R and/or OX2R agonists may be determined utilizing this assay.
In a typical experiment, the OX1 and OX2 receptor agonist activity is determined in accordance with the following general experimental method. Chinese hamster ovary (CHO) cells expressing human OX1R and/or the human OX2R were grown in Iscove's modified DMEM containing glutaMAX™, 1% G418, 100 U/mL penicillin, 100 μg/mL streptomycin and 10% heat-inactivated qualified fetal bovine serum (FBS). […] During this incubation, IP-one detection reagents were prepared (38:1:1 lysis buffer:D2:AB-cryptate reagents).
For each compound, data were fit to a four parameter logistic fit (ActivityBase software) and the EC50 was reported as the inflection point of the resulting curve. Percent effect for each test compound was determined as the percentage of sample raw value/mean max effect, where the mean max effect was derived from the mean raw value of 32 control wells per assay plate (using Orexin A (cat #003-30) at 1 μM for human OX1R and a reference compound at 1 uM with 100% activity previously established by comparison to Orexin A for human OX2R). The intrinsic orexin receptor agonist activity of a compound which may be used in the present invention may be determined by these assays.

| IC50 [nM] | Emax [%] | Compound |
| --- | --- | --- |
| 8710 | 75.9 | COc1cccc(S(=O)(=O)N2CCN(C(=O)c3cccs3)C(C(=O)NCc3ccc4ccccc4c3)C2)c1 (stereo not drawn) [Example 89-8, 4-[(3-methoxyphenyl)sulfonyl]-N-[(naphthalen-2-yl)methyl]-1-(thiophene-2-carbonyl)piperazine-2-carboxamide] |
| 108 | 98.9 | CC(C)C(=O)N1[C@H](C)CN(S(=O)(=O)c2ccccc2)C[C@@H]1C(=O)NCc1ccc(-c2ccco2)cn1 (relative stereo) [Example 23, cis-N-((5-(furan-2-yl)pyridin-2-yl)methyl)-1-isobutyryl-6-methyl-4-(phenylsulfonyl)piperazine-2-carboxamide] |
| 8990 | 98.7 | O=C(NCc1ccc2ccccc2c1)C1CN(S(=O)(=O)c2ccccc2)CCN1C(=O)C1CC1 (stereo not drawn) [Example 10-5, 1-(cyclopropanecarbonyl)-N-(naphthalen-2-ylmethyl)-4-(phenylsulfonyl)piperazine-2-carboxamide] |
| 58.5 | 99.9 | CC(C)C(=O)N1[C@H](C)CN(S(=O)(=O)c2ccccc2)C[C@@H]1C(=O)NCc1ccc(-c2ccco2)cc1F (relative stereo) [Example 32, cis-N-(2-fluoro-4-(furan-2-yl)benzyl)-1-isobutyryl-6-methyl-4-(phenylsulfonyl)piperazine-2-carboxamide] |
| 2540 | 94.3 | C[C@@H]1CN(S(=O)(=O)c2ccccc2)C[C@H](C(=O)NCc2ccc3ccccc3c2)N1C(=O)c1cccs1 (relative stereo) [Example 57, cis-6-methyl-N-(naphthalen-2-ylmethyl)-4-(phenylsulfonyl)-1-(thiophene-2-carbonyl)piperazine-2-carboxamide] |
| 4670 | 90 | O=C(NCc1ccc2ccccc2c1)C1CN(S(=O)(=O)c2ccccc2)CCN1C(=O)c1ccsc1 (stereo not drawn) [Example 10-8, N-(naphthalen-2-ylmethyl)-4-(phenylsulfonyl)-1-(thiophene-3-carbonyl)piperazine-2-carboxamide] |
| 504 | 99.7 | CC(C)C(=O)N1[C@H](C)CN(S(=O)(=O)c2ccccc2)C[C@@H]1C(=O)NCc1cnc(-c2ccco2)cn1 (single isomer, unassigned) [Example 35, cis-N-((5-(furan-2-yl)pyrazin-2-yl)methyl)-1-isobutyryl-6-methyl-4-(phenylsulfonyl)piperazine-2-carboxamide] |
| 409 | 99.2 | CC(C)C(=O)N1[C@H](C)CN(S(=O)(=O)c2ccccc2)C[C@@H]1C(=O)NCc1ccc(-n2cccn2)cc1 (relative stereo) [Example 19-9, cis-N-(4-(1H-pyrazol-1-yl)benzyl)-1-isobutyryl-6-methyl-4-(phenylsulfonyl)piperazine-2-carboxamide] |
| 11700 | 93.9 | O=C(NCc1ccc2ccccc2c1)C1CN(S(=O)(=O)c2ccccc2)CCN1C(=O)c1cncs1 (stereo not drawn) [Example 10-10, N-(naphthalen-2-ylmethyl)-4-(phenylsulfonyl)-1-(thiazole-5-carbonyl)piperazine-2-carboxamide] |
| 5720 | 60.1 | Cc1ccc(S(=O)(=O)N2CCN(C(=O)c3cccs3)C(C(=O)NCc3ccc4ccccc4c3)C2)cc1 (stereo not drawn) [Example 89-1, N-(naphthalen-2-ylmethyl)-1-(thiophene-2-carbonyl)-4-tosylpiperazine-2-carboxamide] |
| 13.1 | 99.6 | Cc1cc(-c2ccco2)ccc1CNC(=O)[C@H]1CN(S(=O)(=O)c2ccccc2)C[C@@H](C)N1C(=O)C(C)C (relative stereo) [Example 29, cis-N-(4-(furan-2-yl)-2-methylbenzyl)-1-isobutyryl-6-methyl-4-(phenylsulfonyl)piperazine-2-carboxamide] |
| 1010 | 20.6 | CC(C)C(=O)N1C(C)CN(S(=O)(=O)c2ccccc2)CC1C(=O)NCc1ccc(-c2cccnc2)cc1 (stereo not drawn) [Example 42-2, 1-isobutyryl-6-methyl-4-(phenylsulfonyl)-N-(4-(pyridin-3-yl)benzyl)piperazine-2-carboxamide] |
